Assay results: DBAASP
In brackets after ≈: the same amount, converted by molar mass. Several values for one entry are separate records, joined by “and”; a condition that tells them apart may be missing. Equal entries are not always repeated. Each block holds one molecule with its values, some of them ahead of it.

Tests used:
Test in all cases: ≥ marks a high value that may be exact or a test limit, other limits are often not marked, values filed in µg/mL are converted to µM
[1] = tested on: Listeria fleischmannii DSM 24998
[2] = tested on: Listeria monocytogenes DSM 20600
Listeria grayi DSM 20601 = tested on: Listeria grayi DSM 20601
Escherichia coli D31 = tested on: Escherichia coli D31
[3] = tested on: Micrococcus luteus DSM 20030
[4] = tested on: Escherichia coli CCT 1457
[5] = tested on: Pseudomonas aeruginosa ATCC 13388
[6] = tested on: Salmonella enterica subsp. enterica serovar Typhimurium ATCC 14028
[7] = tested on: Staphylococcus aureus CCT 2580
[8] = tested on: Staphylococcus epidermidis ATCC 12228
[9] = tested on: Micrococcus luteus ATCC 4698
[10] = tested on: Enterococcus faecium CCT 5079
[11] = tested on: Pseudomonas aeruginosa ATCC 15422
[12] = tested on: Bacillus thuringiensis ATCC 10792
[13] = tested on: Streptococcus mutans AU159
[14] = tested on: Escherichia coli ATCC 11775
[15] = tested on: Staphylococcus aureus CCT 6538
[16] = tested on: Escherichia coli ATCC 25922
[17] = tested on: Salmonella enterica subsp. enterica serovar Choleraesuis ATCC 10708
[18] = tested on: Streptococcus pneumoniae ATCC 11733
[19] = tested on: Enterococcus hirae ATCC 10541
[20] = tested on: Staphylococcus aureus ATCC 25923
[21] = tested on: Bacillus cereus ATCC 11778
[22] = tested on: Candida albicans ATCC 90028
Pseudomonas aeruginosa 1 = tested on: Pseudomonas aeruginosa 1
Acinetobacter baumannii = tested on: Acinetobacter baumannii
Enterococcus faecalis = tested on: Enterococcus faecalis
Pseudomonas aeruginosa = tested on: Pseudomonas aeruginosa
Staphylococcus aureus = tested on: Staphylococcus aureus
Escherichia coli = tested on: Escherichia coli
[23] = tested on: Enterococcus faecalis ATCC 29212
Bacillus subtilis = tested on: Bacillus subtilis
[24] = tested on: Streptococcus pyogenes ATCC 19615
[25] = tested on: Klebsiella pneumoniae ATCC 13883
[26] = tested on: Pseudomonas aeruginosa ATCC 27853
[27] = tested on: Lacticaseibacillus rhamnosus 1.0911
[28] = tested on: Lacticaseibacillus rhamnosus 7469
Escherichia coli UB1005 = tested on: Escherichia coli UB1005
[29] = tested on: Salmonella enterica subsp. enterica serovar Typhimurium C77-31
Escherichia coli K99 = tested on: Escherichia coli K99
[30] = tested on: Salmonella enterica subsp. enterica serovar Pullorum C79-13
[31] = tested on: Lactiplantibacillus plantarum 8014
[32] = tested on: Lacticaseibacillus rhamnosus 1.0385
Escherichia coli K88 = tested on: Escherichia coli K88
[33] = tested on: Staphylococcus aureus ATCC 43300
[34] = tested on: Lacticaseibacillus rhamnosus 1.0936

MIC [1]: 1 µM (≈ 1.99 µg/mL)
MIC [2]: 2 µM (≈ 3.98 µg/mL)
MIC (Listeria grayi DSM 20601): 1 µM (≈ 1.99 µg/mL)
MIC (Escherichia coli D31): 4 µM (≈ 7.95 µg/mL)
MIC [3]: 0.25 µM (≈ 0.497 µg/mL)
SMILES: CC[C@H](C)[C@H](NC(=O)[C@H](C)NC(=O)[C@H](CC(N)=O)NC(=O)[C@H](CCCCN)NC(=O)[C@@H](NC(=O)CNC(=O)[C@H](CCC(=O)O)NC(=O)[C@H](Cc1c[nH]c2ccccc12)NC(=O)[C@H](CC(C)C)NC(=O)[C@H](CCCCN)NC(=O)CNC(=O)[C@H](Cc1c[nH]c2ccccc12)NC(=O)[C@H](Cc1ccccc1)NC(=O)CN)C(C)C)C(=O)N[C@@H](CCCCN)C(=O)N[C@@H](CCCCN)C(=O)N[C@@H](CCCCN)C(N)=O [GFWGKLWEGVKNAIKKK]

MIC [1]: 15 µM (≈ 24.9 µg/mL)
MIC [2]: 30 µM (≈ 49.7 µg/mL)
MIC (Listeria grayi DSM 20601): 8 µM (≈ 13.3 µg/mL)
MIC [3]: 2 µM (≈ 3.31 µg/mL)
SMILES: CC[C@H](C)[C@H](NC(=O)[C@H](C)NC(=O)[C@H](CCCCN)NC(=O)[C@H](CCCCN)NC(=O)[C@@H](NC(=O)[C@@H]1CCCN1C(=O)[C@H](CCCCN)NC(=O)[C@H](Cc1c[nH]c2ccccc12)NC(=O)[C@H](CC(C)C)NC(=O)[C@H](CCCCN)NC(=O)CNC(=O)[C@H](Cc1c[nH]c2ccccc12)NC(=O)[C@H](Cc1ccccc1)NC(=O)CN)C(C)C)C(N)=O [GFWGKLWKPVKKAI]

MIC (Pseudomonas aeruginosa 1): 1.55 µM (≈ 2.83 µg/mL)
MIC (Acinetobacter baumannii): 0.548 µM (≈ 0.999 µg/mL)
MIC (Enterococcus faecalis): 0.658 µM (≈ 1.2 µg/mL)
MIC (Pseudomonas aeruginosa): 0.548 µM (≈ 0.999 µg/mL)
MIC (Staphylococcus aureus): 1.1 µM (≈ 2 µg/mL)
SMILES: CC(C)C[C@H](NC(=O)[C@H](CC(C)C)NC(=O)[C@H](CCCCN)NC(=O)[C@H](CCCCN)NC(=O)[C@H](CC(C)C)NC(=O)[C@H](CCCCN)NC(=O)[C@H](CCCCN)NC(=O)[C@H](CC(C)C)NC(=O)[C@H](CC(C)C)NC(=O)[C@H](CCCCN)NC(=O)[C@H](CCCN=C(N)N)NC(=O)[C@H](Cc1c[nH]c2ccccc12)NC(=O)[C@H](CCCCN)NC(=O)[C@@H](N)CCCCN)C(N)=O [KKWRKLLKKLKKLL]

MIC [27]: ≥ 64 µM
MIC [28]: ≥ 64 µM
MIC (Escherichia coli UB1005): ≥ 32 µM
MIC [6]: > 64 µM
MIC [29]: ≥ 64 µM
MIC (Escherichia coli K99): ≥ 32 µM
MIC [30]: ≥ 64 µM
MIC [32]: ≥ 64 µM
MIC [16]: 23.9 µM and 32 µM
MIC [26]: > 64 µM
MIC (Escherichia coli K88): ≥ 32 µM
MIC [33]: 8 µM (≈ 8.35 µg/mL)
MIC [34]: ≥ 64 µM
SMILES: NC(=O)[C@H](CCCN=C(N)N)NC(=O)[C@H](CCCN=C(N)N)NC(=O)[C@H](Cc1c[nH]c2ccccc12)NC(=O)[C@H](Cc1c[nH]c2ccccc12)NC(=O)[C@H](Cc1c[nH]c2ccccc12)NC(=O)[C@@H](N)CCCN=C(N)N [RWWWRR]
MIC [31]: ≥ 64 µM

Further lines, the molecule ahead of its results:

SMILES: CC[C@H](C)[C@H](N)C(=O)N[C@@H](CC(N)=O)C(=O)N[C@@H](Cc1c[nH]c2ccccc12)C(=O)N[C@@H](CCCCN)C(=O)N[C@@H](CCCCN)C(=O)N[C@H](C(=O)N[C@@H](C)C(=O)N[C@@H](CCCCN)C(=O)N[C@@H](CCCCN)C(=O)N[C@H](C(=O)N[C@@H](C)C(=O)NCC(=O)N[C@@H](CCSC)C(=O)N[C@@H](CC(C)C)C(N)=O)C(C)C)[C@@H](C)CC [INWKKIAKKVAGML]
MIC [4]: 0.625 µM (≈ 0.999 µg/mL)
MIC [5]: 10 µM (≈ 16 µg/mL)
MIC [6]: 1.25 µM (≈ 2 µg/mL)
MIC [7]: 1.25 µM (≈ 2 µg/mL)
MIC [8]: 0.625 µM (≈ 0.999 µg/mL)
MIC [9]: 0.625 µM (≈ 0.999 µg/mL)
MIC [10]: 0.625 µM (≈ 0.999 µg/mL)
MIC [11]: 5 µM (≈ 8 µg/mL)
MIC [12]: 19.4 µM (≈ 31 µg/mL)
MIC [13]: 1.25 µM (≈ 2 µg/mL)
MIC [14]: 2.5 µM (≈ 4 µg/mL)
MIC [15]: 0.625 µM (≈ 0.999 µg/mL)
MIC [16]: 2.5 µM (≈ 4 µg/mL)
MIC [17]: 5 µM (≈ 8 µg/mL)
MIC [18]: 0.625 µM (≈ 0.999 µg/mL)
MIC [19]: 5 µM (≈ 8 µg/mL)
MIC [20]: 1.25 µM (≈ 2 µg/mL)
MIC [21]: 10 µM (≈ 16 µg/mL)
MIC [22]: 9.76 µM (≈ 15.6 µg/mL)

SMILES: CC[C@H](C)[C@H](N)C(=O)N[C@@H](CC(N)=O)C(=O)N[C@@H](Cc1c[nH]c2ccccc12)C(=O)N[C@@H](CC(C)C)C(=O)N[C@@H](C)C(=O)N[C@H](C(=O)N[C@@H](C)C(=O)N[C@@H](C)C(=O)N[C@@H](C)C(=O)N[C@H](C(=O)N[C@@H](C)C(=O)NCC(=O)N[C@@H](CCSC)C(=O)N[C@@H](CC(C)C)C(N)=O)C(C)C)[C@@H](C)CC [INWLAIAAAVAGML]
MIC [4]: ≥ 354 µM
MIC [5]: ≥ 354 µM
MIC [6]: > 354 µM
MIC [7]: ≥ 354 µM
MIC [8]: > 354 µM
MIC [9]: ≥ 354 µM
MIC [10]: ≥ 354 µM
MIC [11]: ≥ 354 µM
MIC [12]: ≥ 354 µM
MIC [13]: ≥ 354 µM
MIC [14]: ≥ 354 µM
MIC [15]: ≥ 354 µM
MIC [16]: > 354 µM
MIC [17]: ≥ 354 µM
MIC [18]: ≥ 354 µM
MIC [19]: ≥ 354 µM
MIC [20]: > 354 µM
MIC [21]: ≥ 354 µM

SMILES: CC(C)C[C@H](NC(=O)[C@H](Cc1c[nH]c2ccccc12)NC(=O)[C@H](CCC(N)=O)NC(=O)[C@@H](NC(=O)[C@H](CCC(N)=O)NC(=O)[C@@H]1CCCN1C(=O)[C@H](CCC(=O)O)NC(=O)[C@H](CCCN=C(N)N)NC(=O)[C@@H](N)CCC(N)=O)C(C)C)C(=O)N[C@@H](CCC(=O)O)C(=O)N[C@@H](CCC(N)=O)C(=O)N[C@@H](CCC(N)=O)C(=O)N[C@H](C(=O)N[C@@H](C)C(=O)N[C@@H](CCCCN)C(=O)N[C@@H](CCCN=C(N)N)C(=O)N[C@@H](CCCN=C(N)N)C(=O)N[C@H](C(=O)N[C@@H](CCCCN)C(=O)N[C@@H](CCCN=C(N)N)C(=O)O)[C@@H](C)O)C(C)C [QREPQVQWLEQQVAKRRTKR]
MIC [6]: > 100 µM
MIC (Escherichia coli): > 100 µM
MIC [23]: > 100 µM
MIC (Bacillus subtilis): ≥ 100 µM
MIC [24]: ≥ 100 µM
MIC [25]: ≥ 100 µM
MIC [26]: > 100 µM
MIC [20]: > 100 µM
